Results taken from US20050209278A1, “Piperidinyl- and piperazinyl-sulfonylmethyl hydroxamic acids and their use as protease inhibitors” (priority 2002, published 2005).
Values joined by “and” are separate entries in the source; they are usually repeats but may differ in a detail not shown here. Identical values can stand only once.

Key:
MMP-9 = molecular target: T1, MMP-9 (Homo sapiens, UniProt P14780); assay: In vitro MMP inhibition, IC50 determination (fluorogenic substrate I); format: biochemical; settings: value in parenthesis; read-out: MMP-9 (IC-50)
T1 construct: made in house; host or cells: MMP-9-transfected HT1080 cells (spent media)
Experimental: Several hydroxamic acids and salts thereof were analyzed in in vitro assays to determine their ability to inhibit the MMP cleavage of peptide substrates. […] and IC50 constants were calculated from the assayed hydroxamic acid-MMP interactions. Human recombinant MMP-1, MMP-2, MMP-9, MMP-13, and MMP-14 were used in this assay. All enzymes were prepared in Assignee's laboratories following usual laboratory procedures. Protocols for the preparation and use of these enzymes are available in the scientific literature. See, e.g., Enzyme Nomenclature (Academic Press, San Diego, Calif., 1992) (and the citations therein). See also, Freije et al., “Molecular cloning and expression of collagenase-3, a novel human matrix metalloproteinase produced by breast carcinomas,” J Biol. Chem., 269(24), 16766-16773 (1994). The MMP-9 proenzyme was purified by gelatin Sepharose chromatography from spent media of MMP-9-transfected HT1080 cells provided by Dr. Howard Welgus of Washington University (St. Louis, Mo.). All MMPs were activated using 4-aminophenylmercuric acetate (“APMA”, Sigma Chemical, St. Louis, Mo.) or trypsin. MMP-9 also was activated using human recombinant MMP-3 (purified in Assignee's laboratory following standard cloning and purification techniques). […] Substrate (I) was purchased from Baychem (Redwood City, Calif.), and substrate II was prepared Assignee's laboratory. Substrate I was used in the IC50 determination assays, while substrate II was used in the Ki determination assays. In the absence of MMP inhibitory activity, either substrate is cleaved at the Gly-Leu peptide bond. […] The stock solutions of the assayed hydroxamic acids (or salts thereof) were prepared in 1% dimethyl sulfoxide (DMSO). […] The experiment controls contained the same amount of Buffer A/DMSO as the assayed sample, but contained no hydroxamic acid (or salt thereof). The assays from which the IC50 determinations were made were performed as follows. […] Louis, Mo.). The assayed hydroxamic acid samples were incubated in MicrofluorTM White Plates (Dynatech, Chantilly, Va.) and analyzed on a Perkin Elmer […] plate reader (Norwalk, Conn.). The excitation wavelength was 328 nm, and the emission wavelength-415 nm. […] As stated in the previous paragraph, samples containing varying concentrations of the same assayed hydroxamic acid were prepared. Inhibition was measured as a reduction in fluorescent intensity as a function of MMP inhibitor concentration. […] All values in Table 2 are given in nM units. The IC50 measurements are in parenthesis.

MMP-14 = molecular target: T2, MMP-14 (Homo sapiens, UniProt P50281); assay: as above; format: biochemical; settings: value in parenthesis; read-out: MMP-14 (IC-50)
T2 construct: The catalytic domain enzyme was expressed in E. coli inclusion bodies, solubilized in urea; made in house
Experimental: Several hydroxamic acids and salts thereof were analyzed in in vitro assays to determine their ability to inhibit the MMP cleavage of peptide substrates. […] and IC50 constants were calculated from the assayed hydroxamic acid-MMP interactions. Human recombinant MMP-1, MMP-2, MMP-9, MMP-13, and MMP-14 were used in this assay. All enzymes were prepared in Assignee's laboratories following usual laboratory procedures. Protocols for the preparation and use of these enzymes are available in the scientific literature. See, e.g., Enzyme Nomenclature (Academic Press, San Diego, Calif., 1992) (and the citations therein). See also, Freije et al., “Molecular cloning and expression of collagenase-3, a novel human matrix metalloproteinase produced by breast carcinomas,” J Biol. Chem., 269(24), 16766-16773 (1994). The MMP-14 full length cDNA was provided by Dr. Gregory Goldberg of Washington University (St. Louis, Mo.). The catalytic domain enzyme was expressed in E. coli inclusion bodies, solubilized in urea, purified on a preparative […] reverse phase HPLC column, and then refolded in the presence of zinc acetate and purified for use. All MMPs were activated using 4-aminophenylmercuric acetate (“APMA”, Sigma Chemical, St. Louis, Mo.) or trypsin. MMP-9 also was activated using human recombinant MMP-3 (purified in Assignee's laboratory following standard cloning and purification techniques). […] Substrate (I) was purchased from Baychem (Redwood City, Calif.), and substrate II was prepared Assignee's laboratory. Substrate I was used in the IC50 determination assays, while substrate II was used in the Ki determination assays. In the absence of MMP inhibitory activity, either substrate is cleaved at the Gly-Leu peptide bond. […] The stock solutions of the assayed hydroxamic acids (or salts thereof) were prepared in 1% dimethyl sulfoxide (DMSO). […] The experiment controls contained the same amount of Buffer A/DMSO as the assayed sample, but contained no hydroxamic acid (or salt thereof). The assays from which the IC50 determinations were made were performed as follows. […] Louis, Mo.). The assayed hydroxamic acid samples were incubated in MicrofluorTM White Plates (Dynatech, Chantilly, Va.) and analyzed on a Perkin Elmer […] plate reader (Norwalk, Conn.). The excitation wavelength was 328 nm, and the emission wavelength-415 nm. […] As stated in the previous paragraph, samples containing varying concentrations of the same assayed hydroxamic acid were prepared. Inhibition was measured as a reduction in fluorescent intensity as a function of MMP inhibitor concentration. […] All values in Table 2 are given in nM units. The IC50 measurements are in parenthesis.

T1 sequence (P14780 107-707 limits assumed): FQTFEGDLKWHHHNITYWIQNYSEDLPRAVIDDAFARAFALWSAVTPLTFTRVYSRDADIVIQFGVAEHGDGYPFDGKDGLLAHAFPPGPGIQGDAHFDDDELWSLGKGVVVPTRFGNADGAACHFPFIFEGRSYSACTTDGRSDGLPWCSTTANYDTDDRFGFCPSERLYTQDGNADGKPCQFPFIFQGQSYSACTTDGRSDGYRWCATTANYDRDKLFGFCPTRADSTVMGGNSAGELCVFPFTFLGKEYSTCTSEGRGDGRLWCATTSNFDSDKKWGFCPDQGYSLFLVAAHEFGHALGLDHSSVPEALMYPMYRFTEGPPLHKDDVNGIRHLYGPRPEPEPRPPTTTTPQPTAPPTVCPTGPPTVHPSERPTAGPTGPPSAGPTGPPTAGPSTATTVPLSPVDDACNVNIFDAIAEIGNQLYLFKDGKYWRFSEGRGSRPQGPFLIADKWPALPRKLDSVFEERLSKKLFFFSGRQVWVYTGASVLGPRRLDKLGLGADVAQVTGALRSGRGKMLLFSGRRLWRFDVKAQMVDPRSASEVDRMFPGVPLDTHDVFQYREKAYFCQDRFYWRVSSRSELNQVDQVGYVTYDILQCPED

Work on `CCCCCCc1ccc(N2CCN(S(=O)(=O)C3(C(=O)NO)CCN(CCOC)CC3)CC2)cc1` [Example 199] yielded an IC50 (MMP-9) of 1 nM and an IC50 (MMP-14) of 6710 nM.
Work on `CCCc1ccc(N2CCN(S(=O)(=O)C3(C(=O)NO)CCN(CCOC)CC3)CC2)cc1` [Example 200] yielded an IC50 (MMP-9) of under 0.1 nM and an IC50 (MMP-14) of 1490 nM.
For `COCCN1CCC(C(=O)NO)(S(=O)(=O)N2CCN(c3ccc(Br)cc3)CC2)CC1` [Example 201], the IC50 (MMP-9) was 5.7 nM and the IC50 (MMP-14) was 301 nM.
With `COCCN1CCC(C(=O)NO)(S(=O)(=O)N2CCN(c3ccc(OC(F)(F)F)cc3)CC2)CC1` [Example 202] the IC50 (MMP-9) was 6.3 nM and the IC50 (MMP-14) was 1170 nM.
`O=C(NO)C1(S(=O)(=O)N2CCN(c3ccc(OC(F)(F)F)cc3)CC2)CCN(C2CC2)CC1` [Example 203] was tested, and the IC50 (MMP-9) was 3.2 nM and 1.9 nM and the IC50 (MMP-14) was 648 nM.
